One series concerns MCF-7 cells. Briefly: Effect of compounds on MCF-7 proliferation (E2-induced growth). The format is cell-based. The following applies: Homo sapiens, MCF7, 144 h, with E2 (1 nM), 6 days. As to the method: MCF-7 cells (50,000 per well) were grown in six-well plates in DME-F12 medium as described in Liu, et al., Mol. Cell Endocrinol, 87:19-28, 1992. The cells were given fresh medium plus the compounds being tested every other day. After 6 days of treatment, the cells were harvested and counted with a Coulter counter (Coulter Electronics, Hialeah, Fla.) as described by Liu et al., J. Natl. Cancer Inst., 86. 1758-1765, 1994; Tiwari et al., J. Natl, Cancer Inst. 86, 126-131, 1994. In some cases, 17-β-estradiol (E2) (1×10^-9 M) was also added in combination with the IC3 or DIM analogs.
__________________________________________________________________________
EFFECTS OF DIFFERENT CONCENTRATIONS OF I3C
AND SUBSTITUTED ANALOGS ON THE GROWTH
OF MCF-7 CELLS IN THE PRESENCF OF E2
% of E2-Induced Response (Conc. of I3C Analogs)
EFFECTS OF DIFFERENT CONCENTRATIONS OF DIM
AND SUBSTITUTED ANALOGS ON THE
GROWTH OF MCF-7 CELLS IN THE PRESENCE OF E2
% of E2-Induced Response (Conc. of DIM Analogs)

The next series relates to mammary tumors. The following applies: oral, 20 hours prior to DMBA; cited from earlier work.
The subject of series [1] is DMBA-induced mammary tumor. The following applies: dietary I3C; 20% Brussels sprouts; cited from earlier work.
For series [2], the system named is estrogen-regulated tumors. The following applies: cited from earlier work.
For the next series, the system named is EROD. In words: EROD in rats of the DMBA-induced mammary carcinoma model. The following applies: 10 treatments by gavage 5 mg/kg every other day, sacrificed day 21; mean ± standard error. The format is in vivo, Sprague-Dawley rats.
Series [3] is described as follows: Toxic endpoints (organ weights) in rats of the DMBA-induced mammary carcinoma model. The format is in vivo, Sprague-Dawley rats. The following applies: 10 treatments by gavage 5 mg/kg every other day, sacrificed day 21, mean ± standard error; for Uterine Wet Weight: control 0.182 ± 0.016; for Liver Weight: control 4.07 ± 0.19.
The subject of series [4] is DMBA-induced mammary tumors. In words: Tumor growth in DMBA-induced mammary carcinoma model. The format is in vivo, Sprague-Dawley rats. The following applies: 10 treatments by gavage 5 mg/kg every other day, sacrificed day 21; mean ± standard error.
[5] abbreviates: read-out: % of E2-Induced Response (Conc. of I3C Analogs).
[6] abbreviates: read-out: % of E2-Induced Response (Conc. of DIM Analogs).

Read-outs that look alike come from different tables or passages of the source.

The source of these data is US5948808A, “Indole-3-carbinol, diindolylmethane and substituted analogs as antiestrogens” (The Texas A&M University System, priority 1997, dated 1999).

Consider `Cn1cc(CO)c2ccccc21` [N-Methyl-I3C, N-methyl-indole-3-carbinol], for which, in the series on MCF-7 cells (setting [5]), the activity at 0.1 µM was found to be 95.6 ± 4.26%, the activity at 1 µM was determined as 96.2 ± 1.66%, the activity at 10 µM came out at 47.8 ± 2.13% and the activity at 50 µM was 14.4 ± 0.9%. Besides, the activity at 100 µM with MCF-7 cells (setting [5]) stood at 3.91 ± 0.64%.

In the case of `Cc1c(CO)c2ccccc2n1C` [1,2-Dimethyl-I3C], in the series on MCF-7 cells (setting [5]), the activity at 0.1 µM amounted to 98 ± 5.68%, the activity at 1 µM came out at 94.4 ± 7.73%, the activity at 10 µM amounted to 65.9 ± 2.86% and the activity at 50 µM was 0.35 ± 0.24%. The activity at 100 µM in the series on MCF-7 cells (setting [5]) stood at 0.42 ± 0.14%.

For the compound `Clc1ccc2[nH]cc(Cc3c[nH]c4ccc(Cl)cc34)c2c1` [5-Chloro-DIM, 5,5'-dichloro-diindolylmethane], in the series with MCF-7 cells (setting [6]), the activity at 0.01 µM was 98.4 ± 11.2%, the activity at 0.1 µM is 98.3 ± 8.34%, the activity at 1 µM was 87.3 ± 5.98% and the activity at 5 µM is 0.75 ± 0.1%. For the same compound, in the series with MCF-7 cells (setting [6]), the activity at 10 µM was determined as 0.99 ± 0.27%.

Consider `Brc1ccc2[nH]cc(Cc3c[nH]c4ccc(Br)cc34)c2c1` [5-Bromo-DIM, 5,5'-dibromo-diindolylmethane], for which, in the series with MCF-7 cells (setting [6]), the activity at 0.01 µM amounted to 99.03 ± 0.49%, the activity at 0.1 µM came to 106 ± 3.38%, the activity at 1 µM was 75 ± 1.35% and the activity at 5 µM was determined as 9.92 ± 0.58%. Also, the activity at 10 µM with MCF-7 cells (setting [6]) amounted to 0.3 ± 0.04%.

For `OCc1c[nH]c2ccccc12` [I3C, indole 3-carbinol, reference compound], the “occurrence of mammary tumors (in words)” value with mammary tumors is “inhibited the occurrence of mammary tumors”. In the series with MCF-7 cells (setting [5]), the activity at 0.1 µM was found to be 100 ± 5.7%, the activity at 1 µM came out at 96.3 ± 3.23%, the activity at 10 µM amounted to 83.9 ± 2.46% and the activity at 50 µM worked out at 36.9 ± 0.65%. Also, the activity at 100 µM in the series with MCF-7 cells (setting [5]) was 8.15 ± 1%. In addition, the “DMBA-induced mammary tumor formation and progression (in words)” value in series [1] is “inhibited DMBA-induced mammary tumor formation and progression”. Besides, the “formation or growth of estrogen-regulated tumors (in words)” value in series [2] (rodent mammary, endometrium and uterus) is “inhibit formation or growth of estrogen-regulated tumors”. Moreover, the “mammary carcinogenesis (in words)” value in series [2] (rodent models) is “inhibits mammary carcinogenesis in rodent models”.

Consider `O=[N+]([O-])c1ccc2[nH]cc(CO)c2c1` [5-Nitro-I3C], for which, in the series with MCF-7 cells (setting [5]), the activity at 0.1 µM was found to be 94.7 ± 2.05%, the activity at 1 µM was determined as 92.7 ± 3.89%, the activity at 10 µM was found to be 44.2 ± 3.34% and the activity at 50 µM turned out to be 1.71 ± 0.06%. In addition, the activity at 100 µM in the series on MCF-7 cells (setting [5]) is 0.39 ± 0.06%.

Take `Cn1cc(Cc2cn(C)c3ccccc23)c2ccccc21` [N-Methyl-DIM, N,N'-dimethyl-diindolylmethane]: in the series on MCF-7 cells (setting [6]), the activity at 0.01 µM is 82.8 ± 10.8%, the activity at 0.1 µM was 96.4 ± 2.94%, the activity at 1 µM amounted to 78.5 ± 3.03% and the activity at 5 µM was determined as 3.92 ± 0.49%. The activity at 10 µM in the series on MCF-7 cells (setting [6]) stood at 0.85 ± 0.12%.

For `OCc1c[nH]c2ccc(Cl)cc12` [5-Chloro-I3C, 5-chloro-indole-3-carbinol], in the series on MCF-7 cells (setting [5]), the activity at 0.1 µM turned out to be 94 ± 11.2%, the activity at 1 µM stood at 92.4 ± 3.14%, the activity at 10 µM was found to be 82.2 ± 4.55% and the activity at 50 µM came out at 29.8 ± 5.98%. Moreover, the activity at 100 µM in the series on MCF-7 cells (setting [5]) turned out to be 1.02 ± 0.22%.

Turning to `Cc1ccc2[nH]cc(CO)c2c1` [5-Methyl-I3C, 5-methyl-indole-3-carbinol], in the series on MCF-7 cells (setting [5]), the activity at 0.1 µM was 87.8 ± 11.1%, the activity at 1 µM was 81.6 ± 10.8%, the activity at 10 µM came to 53 ± 4.24% and the activity at 50 µM is 0.87 ± 0.11%. For the same compound, in the series on MCF-7 cells (setting [5]), the activity at 100 µM was determined as 0.57 ± 0.2%.

With `c1ccc2c(Cc3c[nH]c4ccccc34)c[nH]c2c1` [DIM, 3,3'diindolylmethane, reference compound], in the series with mammary tumors, the “occurrence of mammary tumors (in words)” value is on record as “inhibited the occurrence of mammary tumors”. The compound also came in with an EROD with EROD of 106.1 ± 22.4 % Control. Further, in series [3], the “Uterine Wet Weight” value amounted to 0.184 ± 0.027 % body weight and the “Liver Weight” value is on record as 3.87 ± 0.22 % body weight. Besides, in series [4], the “Tumor Volume” value came out at 19.9 ± 5.8 % Control and the “Tumor Weight” value was 23.7 ± 6.0 % Control. Besides, in the series on MCF-7 cells (setting [6]), the activity at 0.01 µM was 107 ± 8.43%, the activity at 0.1 µM turned out to be 97.3 ± 3.56%, the activity at 1 µM amounted to 77 ± 5.16% and the activity at 5 µM was found to be 22.5 ± 2.47%. Moreover, the activity at 10 µM with MCF-7 cells (setting [6]) is 6.84 ± 0.71%.

`COc1ccc2[nH]cc(Cc3c[nH]c4ccc(OC)cc34)c2c1` [5-Methoxy-DIM, 5,5'-dimethoxy-diindolylmethane] had an EROD with EROD of 151.2 ± 43.4 % Control. In series [3], the “Uterine Wet Weight” value is 0.224 ± 0.034 % body weight and the “Liver Weight” value worked out at 4.16 ± 0.23 % body weight. Further, in series [4], the “Tumor Volume” value came out at 22.1 ± 4.4 % Control and the “Tumor Weight” value amounted to 22.1 ± 4.4 % Control. Besides, in the series on MCF-7 cells (setting [6]), the activity at 0.01 µM worked out at 87.2 ± 3.52%, the activity at 0.1 µM came to 89.4 ± 3.12%, the activity at 1 µM amounted to 69.4 ± 3.95% and the activity at 5 µM came out at 37.1 ± 4.52%. The activity at 10 µM in the series on MCF-7 cells (setting [6]) came out at 11.4 ± 1.63%.

Consider `COc1ccc2[nH]cc(CO)c2c1` [5-Methoxy-I3C, 5-methoxy-indole-3-carbinol], for which, in the series on MCF-7 cells (setting [5]), the activity at 0.1 µM is 87.6 ± 5.4%, the activity at 1 µM is 78.4 ± 11.9%, the activity at 10 µM was found to be 58.9 ± 7.96% and the activity at 50 µM is 2.97 ± 0.2%. In addition, the activity at 100 µM in the series on MCF-7 cells (setting [5]) turned out to be 0.61 ± 0.14%.

`Fc1ccc2[nH]cc(Cc3c[nH]c4ccc(F)cc34)c2c1` [5-Fluoro-DIM, 5,5'-difluoro-diindolylmethane] came in with an EROD in the series on EROD of 157.6 ± 22.1 % Control. Further, in series [3], the “Uterine Wet Weight” value worked out at 0.208 ± 0.044 % body weight and the “Liver Weight” value is given as 4.30 ± 0.29 % body weight. In addition, in series [4], the “Tumor Volume” value turned out to be 35.8 ± 16.6 % Control and the “Tumor Weight” value was determined as 45.0 ± 20.0 % Control. Further, in the series on MCF-7 cells (setting [6]), the activity at 0.01 µM turned out to be 90.3 ± 2.5%, the activity at 0.1 µM amounted to 103 ± 2.63%, the activity at 1 µM was 77.1 ± 3.51% and the activity at 5 µM was 35.7 ± 5.13%. In addition, in the series on MCF-7 cells (setting [6]), the activity at 10 µM stood at 8.46 ± 1.17%.

As to `OCc1c[nH]c2ccc(Br)cc12` [5-Bromo-I3C, 5-bromo-indole-3-carbinol], in the series on MCF-7 cells (setting [5]), the activity at 0.1 µM turned out to be 96.3 ± 6.97%, the activity at 1 µM was found to be 97.3 ± 6.33%, the activity at 10 µM was 94.4 ± 2.47% and the activity at 50 µM was 59.6 ± 1.05%. The activity at 100 µM in the series on MCF-7 cells (setting [5]) came out at 14.9 ± 0.72%.
